{"source": "ChEMBL document CHEMBL6121021", "about": "“Design and Synthesis of Topoisomerases-Histone Deacetylase Dual Targeted Quinoline-Bridged Hydroxamates as Anticancer Agents” (J Med Chem, 2025)", "key": {"MDA-MB-231 [1]": {"tested_on": "MDA-MB-231", "test": "Anti-cancer activity against human MDA-MB-231 cells assessed as decrease in CDK-4 level at 1 to 10 uM incubated for 48 hrs by immunoblot analysis", "type": "functional, cell-based", "conditions": "dose 1-10 µM"}, "[2]": {"test": "Metabolic stability in mouse hepatocytes assessed as hepatic clearance at 2 uM measured upto 120 min by LC-MS/MS analysis", "type": "ADME, cell-based, Hepatocyte"}, "[3]": {"test": "Metabolic stability in mouse hepatocytes assessed as half life at 2 uM measured upto 120 min by LC-MS/MS analysis", "type": "ADME, cell-based, Hepatocyte"}, "[4]": {"test": "Toxicity in athymic nude Crl:NU-Foxn1nu mouse xenografted with human A549 cells assessed as animal survival at 30 mg/kg, po administered twice a week for 1 month", "type": "organism-based", "conditions": "in vivo, 730 h, time 1 months"}, "Histone deacetylase 1": {"biological_target": "Histone deacetylase 1 (Homo sapiens, UniProt Q13547)", "sequence (Q13547 whole entry)": "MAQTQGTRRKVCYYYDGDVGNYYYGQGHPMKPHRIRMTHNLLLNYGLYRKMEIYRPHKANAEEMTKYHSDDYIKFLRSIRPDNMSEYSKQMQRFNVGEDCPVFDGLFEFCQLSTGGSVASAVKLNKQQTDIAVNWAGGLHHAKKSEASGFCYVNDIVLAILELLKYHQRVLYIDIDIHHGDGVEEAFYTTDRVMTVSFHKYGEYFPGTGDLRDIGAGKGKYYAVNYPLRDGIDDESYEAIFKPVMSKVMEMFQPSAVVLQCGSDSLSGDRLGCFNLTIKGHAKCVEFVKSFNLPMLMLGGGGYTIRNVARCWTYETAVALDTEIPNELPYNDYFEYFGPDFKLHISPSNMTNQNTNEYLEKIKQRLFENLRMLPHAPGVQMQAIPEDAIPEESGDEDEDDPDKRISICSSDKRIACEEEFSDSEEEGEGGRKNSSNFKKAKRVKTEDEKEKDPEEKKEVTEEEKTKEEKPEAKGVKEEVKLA", "test": "Inhibition of HDAC1 extracted from human A549 nucleus incubated for 1 hr by fluorometric assay", "type": "cell-free"}, "Histone deacetylase 5": {"biological_target": "Histone deacetylase 5 (Homo sapiens, UniProt Q9UQL6)", "sequence (Q9UQL6 whole entry, the tested form may be a part)": "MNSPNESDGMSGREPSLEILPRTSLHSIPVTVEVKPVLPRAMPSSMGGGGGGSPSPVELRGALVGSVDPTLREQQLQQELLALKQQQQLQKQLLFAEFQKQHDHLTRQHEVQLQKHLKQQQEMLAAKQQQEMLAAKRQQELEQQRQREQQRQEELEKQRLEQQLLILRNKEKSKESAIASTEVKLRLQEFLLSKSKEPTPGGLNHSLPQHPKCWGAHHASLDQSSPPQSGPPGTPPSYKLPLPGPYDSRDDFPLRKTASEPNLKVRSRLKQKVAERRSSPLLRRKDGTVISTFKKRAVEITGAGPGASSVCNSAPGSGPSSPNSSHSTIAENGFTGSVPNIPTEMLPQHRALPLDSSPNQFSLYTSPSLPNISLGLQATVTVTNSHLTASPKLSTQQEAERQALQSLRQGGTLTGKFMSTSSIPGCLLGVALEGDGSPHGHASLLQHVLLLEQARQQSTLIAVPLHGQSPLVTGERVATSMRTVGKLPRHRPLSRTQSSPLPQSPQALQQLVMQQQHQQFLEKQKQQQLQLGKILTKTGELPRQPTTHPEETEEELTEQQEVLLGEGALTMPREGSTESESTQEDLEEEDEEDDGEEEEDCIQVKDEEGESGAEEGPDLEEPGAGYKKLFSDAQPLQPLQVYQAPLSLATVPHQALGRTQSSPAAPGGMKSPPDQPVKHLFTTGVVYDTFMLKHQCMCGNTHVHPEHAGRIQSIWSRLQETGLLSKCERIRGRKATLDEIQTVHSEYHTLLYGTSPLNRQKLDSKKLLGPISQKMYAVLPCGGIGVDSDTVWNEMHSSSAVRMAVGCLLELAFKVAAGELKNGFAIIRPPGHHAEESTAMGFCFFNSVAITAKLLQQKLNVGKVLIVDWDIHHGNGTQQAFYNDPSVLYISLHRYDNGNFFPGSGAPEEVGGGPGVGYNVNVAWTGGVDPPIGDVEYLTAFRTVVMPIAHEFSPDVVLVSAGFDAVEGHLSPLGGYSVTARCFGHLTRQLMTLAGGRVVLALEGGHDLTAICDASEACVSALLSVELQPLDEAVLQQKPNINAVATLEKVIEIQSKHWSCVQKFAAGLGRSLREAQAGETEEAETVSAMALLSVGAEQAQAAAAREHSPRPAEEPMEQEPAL", "test": "Inhibition of His-tagged recombinant human HDAC5 catalytic domain by fluorogenic assay"}, "A549 [5]": {"tested_on": "A549", "test": "In vivo cytotoxicity against human A549 cells xenografted in athymic nude Crl:NU-Foxn1nu mouse at 15 to 30 mg/kg, po administered twice a week for 1 month", "type": "functional, organism-based", "conditions": "dose 15-30 mg/kg, time 1.0 months"}, "[6]": {"test": "Drug metabolism in human hepatocytes assessed as O-dealkylation M5 metabolite formation at 10 uM by LC-MS/MS analysis", "type": "ADME, cell-based, Hepatocyte"}, "A549 [7]": {"tested_on": "A549", "test": "Induction of mitophagy in human A549 cells at 500 nM by MitoTracker Green dye based analysis", "type": "functional, cell-based"}, "[8]": {"biological_target": "T1, DNA topoisomerase 2-alpha (Homo sapiens, UniProt P11388)", "T1 sequence (P11388 whole entry)": "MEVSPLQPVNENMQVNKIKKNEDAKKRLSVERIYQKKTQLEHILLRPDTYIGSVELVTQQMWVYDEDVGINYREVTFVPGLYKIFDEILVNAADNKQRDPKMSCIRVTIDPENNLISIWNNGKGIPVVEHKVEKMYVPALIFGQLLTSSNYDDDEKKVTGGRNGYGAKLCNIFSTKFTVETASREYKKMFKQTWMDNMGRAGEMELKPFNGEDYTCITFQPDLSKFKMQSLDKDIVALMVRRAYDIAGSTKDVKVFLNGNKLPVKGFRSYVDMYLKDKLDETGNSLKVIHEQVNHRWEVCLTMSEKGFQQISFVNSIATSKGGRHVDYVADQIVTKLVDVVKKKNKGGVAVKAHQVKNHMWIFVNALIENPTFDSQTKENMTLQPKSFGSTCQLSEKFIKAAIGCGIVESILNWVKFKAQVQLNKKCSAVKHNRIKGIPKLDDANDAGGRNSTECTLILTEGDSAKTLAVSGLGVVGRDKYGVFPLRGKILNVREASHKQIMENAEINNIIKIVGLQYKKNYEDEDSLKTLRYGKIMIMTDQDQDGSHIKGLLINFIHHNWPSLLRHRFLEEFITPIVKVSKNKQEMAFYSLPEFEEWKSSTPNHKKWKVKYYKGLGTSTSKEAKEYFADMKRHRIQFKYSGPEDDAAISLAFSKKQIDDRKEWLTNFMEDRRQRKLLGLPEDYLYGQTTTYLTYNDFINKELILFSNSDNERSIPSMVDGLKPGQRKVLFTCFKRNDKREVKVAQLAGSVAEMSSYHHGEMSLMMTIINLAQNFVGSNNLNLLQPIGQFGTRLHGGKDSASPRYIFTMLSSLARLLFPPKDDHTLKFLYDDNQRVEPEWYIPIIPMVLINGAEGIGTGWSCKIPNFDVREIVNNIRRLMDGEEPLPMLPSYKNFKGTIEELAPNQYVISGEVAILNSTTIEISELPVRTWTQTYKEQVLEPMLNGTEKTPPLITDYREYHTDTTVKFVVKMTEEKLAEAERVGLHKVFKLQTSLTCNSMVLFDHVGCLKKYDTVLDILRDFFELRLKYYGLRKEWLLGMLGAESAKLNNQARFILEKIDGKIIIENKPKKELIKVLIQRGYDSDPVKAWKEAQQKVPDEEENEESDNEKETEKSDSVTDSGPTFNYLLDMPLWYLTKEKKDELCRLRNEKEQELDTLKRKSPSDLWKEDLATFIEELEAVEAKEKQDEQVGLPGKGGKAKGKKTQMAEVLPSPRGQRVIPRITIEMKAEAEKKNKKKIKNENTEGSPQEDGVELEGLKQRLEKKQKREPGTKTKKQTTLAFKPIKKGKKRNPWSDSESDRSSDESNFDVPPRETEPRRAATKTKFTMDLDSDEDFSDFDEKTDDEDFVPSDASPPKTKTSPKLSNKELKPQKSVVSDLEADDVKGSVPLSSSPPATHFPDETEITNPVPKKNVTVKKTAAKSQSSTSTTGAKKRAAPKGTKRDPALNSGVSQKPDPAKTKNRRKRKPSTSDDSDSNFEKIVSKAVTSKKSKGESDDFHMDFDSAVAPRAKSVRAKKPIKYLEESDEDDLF", "test": "Inhibition of human Topo II-alpha-mediated decatenation of kDNA at 100 uM incubated for 30 mins"}, "A549 [9]": {"tested_on": "A549", "test": "In vivo inhibition of epithelial-mesenchymal transition in human A549 cells xenografted in athymic nude Crl:NU-Foxn1nu mouse assessed as decrease in Twist mRNA level at 30 mg/kg, po administered twice a week for 1 month by qPCR analysis", "type": "functional, organism-based", "conditions": "time 1.0 months"}, "A549 [10]": {"tested_on": "A549", "test": "In vivo induction of apoptosis in human A549 cells xenografted in athymic nude Crl:NU-Foxn1nu mouse assessed as increase in Bcl-2 level at 30 mg/kg, po administered twice a week for 1 month by immunoblot analysis", "type": "functional, organism-based", "conditions": "time 1.0 months"}, "MDA-MB-231 [11]": {"tested_on": "MDA-MB-231", "test": "Anti-cancer activity against human MDA-MB-231 cells assessed as decrease in p53 level at 5 to 10 uM incubated for 48 hrs by immunoblot analysis", "type": "functional, cell-based", "conditions": "dose 5-10 µM"}, "A549 [12]": {"tested_on": "A549", "test": "Induction of cell cycle arrest in human A549 cells assessed as accumulation at G2/M phase at 500 nM by PI staining based flow cytometry", "type": "functional"}, "[13]": {"biological_target": "Polyamine deacetylase HDAC10 (Homo sapiens, UniProt Q969S8)", "test": "Inhibition of N-terminal FLAG-tagged recombinant human HDAC10 (2 to 631 residues) extracted from baculovirus infected Sf9 cells by fluorogenic assay"}, "A549 [14]": {"tested_on": "A549", "test": "In vivo anti-metastatic activity in human A549 cells xenografted in athymic nude Crl:NU-Foxn1nu mouse assessed as decrease in ZEB1 mRNA level at 30 mg/kg, po administered twice a week for 1 month by qPCR analysis", "type": "functional, organism-based", "conditions": "time 1.0 months"}, "A549 [15]": {"tested_on": "A549", "test": "In vivo induction of apoptosis in human A549 cells xenografted in athymic nude Crl:NU-Foxn1nu mouse assessed as increase in Bax level at 30 mg/kg, po administered twice a week for 1 month by immunoblot analysis", "type": "functional, organism-based", "conditions": "time 1.0 months"}, "HEK293": {"tested_on": "HEK293", "test": "Antiproliferative activity against HEK293 cells at 10 uM incubated for 48 hrs by MTT assay", "type": "toxicity, cell-based", "conditions": "human, hek293, 48 h"}, "[16]": {"test": "Drug metabolism in human hepatocytes assessed as glucuronide conjugated M8 metabolite formation at 10 uM by LC-MS/MS analysis", "type": "ADME, cell-based, Hepatocyte"}, "Histone deacetylase 11": {"biological_target": "Histone deacetylase 11 (Homo sapiens, UniProt Q96DB2)", "sequence (Q96DB2 whole entry)": "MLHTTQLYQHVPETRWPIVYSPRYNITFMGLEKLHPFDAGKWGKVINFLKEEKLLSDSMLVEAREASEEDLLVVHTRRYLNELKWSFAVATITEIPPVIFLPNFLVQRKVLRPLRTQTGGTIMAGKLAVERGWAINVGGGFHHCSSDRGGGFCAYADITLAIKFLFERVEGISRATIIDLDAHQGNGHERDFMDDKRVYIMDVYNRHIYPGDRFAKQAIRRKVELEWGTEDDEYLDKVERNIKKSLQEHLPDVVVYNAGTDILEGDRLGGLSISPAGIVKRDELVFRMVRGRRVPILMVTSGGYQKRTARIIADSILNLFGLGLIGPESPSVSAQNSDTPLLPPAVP", "test": "Inhibition of recombinant human HDAC11 by fluorogenic assay"}, "A549 [17]": {"tested_on": "A549", "test": "Antitumor activity against human A549 cells xenografted in athymic nude Crl:NU-Foxn1nu mouse assessed as decrease in tumor size at 15 to 30 mg/kg, po administered twice a week for 1 month", "type": "functional, organism-based", "conditions": "dose 15-30 mg/kg, time 1.0 months"}, "[18]": {"test": "Metabolic stability in human hepatocytes assessed as hepatic clearance at 2 uM measured upto 120 min by LC-MS/MS analysis", "type": "ADME, cell-based, Hepatocyte"}, "[19]": {"biological_target": "Histone deacetylase 3/Nuclear receptor corepressor 2 (HDAC3/NCoR2) (Homo sapiens, UniProt O15379)", "test": "Inhibition of His/GST-tagged recombinant human HDAC3/NcoR2 by fluorogenic assay", "type": "protein-complex assay"}, "[20]": {"test": "Drug metabolism in human hepatocytes assessed as beta-oxidation M2 metabolite formation at 10 uM by LC-MS/MS analysis", "type": "ADME, cell-based, Hepatocyte"}, "[21]": {"test": "Drug metabolism in human hepatocytes assessed as demethylation M6 metabolite formation at 10 uM by LC-MS/MS analysis", "type": "ADME, cell-based, Hepatocyte"}, "A549 [22]": {"tested_on": "A549", "test": "Induction of apoptosis in human A549 cells at 500 nM by Annexin-V/PI staining based flow cytometry", "type": "functional, cell-based"}, "A549 [23]": {"tested_on": "A549", "test": "Antitumor activity against human A549 cells xenografted in athymic nude Crl:NU-Foxn1nu mouse assessed as tumor regression at 30 mg/kg, po administered twice a week for 1 month", "type": "functional, organism-based", "conditions": "time 1.0 months"}, "MDA-MB-231 [24]": {"tested_on": "MDA-MB-231", "test": "cells", "type": "functional, cell-based", "conditions": "Homo sapiens, MDA-MB-231, 48 h"}, "[25]": {"biological_target": "T1, DNA topoisomerase 2-alpha", "test": "Inhibition of human Topo II-alpha-mediated decatenation of kDNA incubated for 30 mins"}, "A549 [26]": {"tested_on": "A549", "test": "In vivo anti-migratory activity in human A549 cells xenografted in athymic nude Crl:NU-Foxn1nu mouse assessed as decrease in vimentin mRNA level at 30 mg/kg, po administered twice a week for 1 month by qPCR analysis", "type": "functional, organism-based", "conditions": "time 1.0 months"}, "[27]": {"test": "Drug metabolism in human hepatocytes assessed as formation of O-demethylated M6 metabolite conjugated with sulphate at 10 uM by LC-MS/MS analysis", "type": "ADME, cell-based, Hepatocyte"}, "A549 [28]": {"tested_on": "A549", "test": "Induction of cell cycle arrest in human A549 cells assessed as accumulation at G1 phase at 500 nM by PI staining based flow cytometry", "type": "functional"}, "Supercoiled DNA": {"tested_on": "Supercoiled DNA", "test": "Binding affinity to supercoiled DNA (unknown origin) assessed as DNA intercalation measured after 30 mins by gel electrophoresis", "type": "nucleic-acid assay"}, "NCI-H1299": {"tested_on": "NCI-H1299", "test": "cells", "type": "functional, cell-based", "conditions": "Homo sapiens, NCI-H1299, 48 h"}, "Histone deacetylase 4": {"biological_target": "Histone deacetylase 4 (Homo sapiens, UniProt P56524)", "sequence (P56524 whole entry)": "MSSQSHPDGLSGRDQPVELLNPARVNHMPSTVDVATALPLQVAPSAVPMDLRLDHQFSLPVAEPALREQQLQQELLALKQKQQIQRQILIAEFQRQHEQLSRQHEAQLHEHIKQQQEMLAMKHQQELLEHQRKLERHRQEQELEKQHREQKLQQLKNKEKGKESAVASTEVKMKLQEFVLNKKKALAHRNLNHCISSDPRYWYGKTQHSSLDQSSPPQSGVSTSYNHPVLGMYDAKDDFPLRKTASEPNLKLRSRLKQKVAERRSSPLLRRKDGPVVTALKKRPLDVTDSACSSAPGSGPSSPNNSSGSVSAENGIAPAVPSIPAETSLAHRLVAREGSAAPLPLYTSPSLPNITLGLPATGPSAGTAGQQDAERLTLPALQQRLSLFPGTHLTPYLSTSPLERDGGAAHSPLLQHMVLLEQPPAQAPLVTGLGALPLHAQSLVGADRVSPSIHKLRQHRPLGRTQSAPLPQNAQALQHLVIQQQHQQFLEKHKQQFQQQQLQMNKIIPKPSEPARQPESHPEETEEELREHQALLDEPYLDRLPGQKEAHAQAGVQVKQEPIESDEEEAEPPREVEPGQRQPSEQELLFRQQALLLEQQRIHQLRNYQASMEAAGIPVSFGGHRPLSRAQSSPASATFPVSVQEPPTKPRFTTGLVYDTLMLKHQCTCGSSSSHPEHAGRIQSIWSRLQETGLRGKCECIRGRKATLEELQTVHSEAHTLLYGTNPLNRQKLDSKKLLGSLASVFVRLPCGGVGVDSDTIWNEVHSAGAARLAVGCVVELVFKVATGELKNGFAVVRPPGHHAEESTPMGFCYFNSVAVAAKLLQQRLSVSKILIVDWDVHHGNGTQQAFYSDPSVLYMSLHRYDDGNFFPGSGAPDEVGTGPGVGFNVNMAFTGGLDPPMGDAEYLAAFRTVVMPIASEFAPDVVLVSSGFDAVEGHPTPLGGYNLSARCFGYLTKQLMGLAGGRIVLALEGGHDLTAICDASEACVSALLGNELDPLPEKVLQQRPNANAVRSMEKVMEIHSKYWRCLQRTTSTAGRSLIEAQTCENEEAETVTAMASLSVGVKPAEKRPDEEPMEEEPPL", "test": "Inhibition of His/GST-tagged recombinant human HDAC4 by fluorogenic assay"}, "MDA-MB-231 [29]": {"tested_on": "MDA-MB-231", "test": "Anti-cancer activity against human MDA-MB-231 cells assessed as decrease in PCNA level at 10 uM incubated for 48 hrs by immunoblot analysis", "type": "functional, cell-based"}, "MDA-MB-231 [30]": {"tested_on": "MDA-MB-231", "test": "Anti-cancer activity against human MDA-MB-231 cells assessed as decrease in p21 level at 1 uM incubated for 48 hrs by immunoblot analysis", "type": "functional, cell-based"}, "MDA-MB-231 [31]": {"tested_on": "MDA-MB-231", "test": "Anti-cancer activity against human MDA-MB-231 cells assessed as decrease in p53 level at 10 uM incubated for 48 hrs by immunoblot analysis", "type": "functional, cell-based"}, "A549 [32]": {"tested_on": "A549", "test": "Induction of cell cycle arrest in human A549 cells assessed as accumulation at G1 phase by PI staining based flow cytometry", "type": "functional"}}, "note": "pIC50: −log10 of the molar value. Activity calls are given as the source filed them. No cut-off for these calls is given here.", "data": [{"molecule": "COc1ccc(-c2ccc3cc(OCCCCCC(=O)NO)ccc3n2)cc1", "values": [{"measurement": "Activity", "setting": "MDA-MB-231 [1]", "result": "Active"}, {"measurement": "CLhep predicted at 2 µM", "setting": "[2]", "result": 65.9, "unit": "mL/min/kg"}, {"measurement": "half-life at 2 µM", "setting": "[3]", "result": 1.24, "unit": "h"}, {"measurement": "Activity", "setting": "[4]", "result": "Non-toxic"}, {"measurement": "pIC50", "setting": "Histone deacetylase 1", "result": 7.92}, {"measurement": "pIC50", "setting": "Histone deacetylase 5", "result": 7.05}, {"measurement": "Activity", "setting": "A549 [5]", "result": "Active"}, {"measurement": "Drug metabolism", "setting": "[6]", "result": "metabolite_detected"}, {"measurement": "Activity", "setting": "A549 [7]", "result": "Active"}, {"measurement": "inhibition", "setting": "[8]", "result": "Active; Observed As More Active Than Etoposide"}, {"measurement": "inhibition", "setting": "A549 [9]", "result": "Active"}, {"measurement": "Activity", "setting": "A549 [10]", "result": "Active"}, {"measurement": "Activity", "setting": "MDA-MB-231 [11]", "result": "inactive"}, {"measurement": "Activity", "setting": "A549 [12]", "result": "Active"}, {"measurement": "pIC50", "setting": "[13]", "result": 7.06}, {"measurement": "Activity", "setting": "A549 [14]", "result": "Active"}, {"measurement": "Activity", "setting": "A549 [15]", "result": "Active"}, {"measurement": "Activity", "setting": "HEK293", "result": "Non-toxic"}, {"measurement": "Drug metabolism", "setting": "[16]", "result": "metabolite_detected"}, {"measurement": "pIC50", "setting": "Histone deacetylase 11", "result": 7.24}, {"measurement": "Activity", "setting": "A549 [17]", "result": "Active"}, {"measurement": "CLhep predicted at 2 µM", "setting": "[18]", "result": 14, "unit": "mL/min/kg"}, {"measurement": "pIC50", "setting": "[19]", "result": 7.05}, {"measurement": "Drug metabolism", "setting": "[20]", "result": "metabolite_detected"}, {"measurement": "Drug metabolism", "setting": "[21]", "result": "metabolite_detected"}, {"measurement": "Activity", "setting": "A549 [22]", "result": "Active"}, {"measurement": "Activity", "setting": "A549 [23]", "result": "Active; Exerted Maximum Effect"}, {"measurement": "pIC50", "setting": "MDA-MB-231 [24]", "result": 6.06}, {"measurement": "pIC50", "setting": "[25]", "result": 4.17}, {"measurement": "Activity", "setting": "A549 [26]", "result": "Active"}, {"measurement": "Drug metabolism", "setting": "[27]", "result": "metabolite_detected"}, {"measurement": "Activity", "setting": "A549 [28]", "result": "Active"}, {"measurement": "Activity", "setting": "Supercoiled DNA", "result": "inactive"}, {"measurement": "pIC50", "setting": "NCI-H1299", "result": 5.77}, {"measurement": "pIC50", "setting": "Histone deacetylase 4", "result": 7.00}]}, {"molecule": "COc1ccc(-c2ccc3ccc(OCCCCCCC(=O)NO)cc3n2)cc1I", "values": [{"measurement": "pIC50", "setting": "Histone deacetylase 1", "result": 7.44}, {"measurement": "inhibition", "setting": "[8]", "result": "Active; Observed As More Active Than Etoposide"}, {"measurement": "Activity", "setting": "MDA-MB-231 [29]", "result": "Active"}, {"measurement": "Activity", "setting": "MDA-MB-231 [30]", "result": "inactive"}, {"measurement": "Activity", "setting": "MDA-MB-231 [31]", "result": "inactive"}, {"measurement": "pIC50", "setting": "MDA-MB-231 [24]", "result": 5.81}, {"measurement": "Activity", "setting": "A549 [32]", "result": "Active"}, {"measurement": "Activity", "setting": "Supercoiled DNA", "result": "inactive"}, {"measurement": "pIC50", "setting": "NCI-H1299", "result": 5.79}]}]}
